Experimental data published in patent US9394561B2, “Cyclic peptide production” (National Research Council of Canada, priority 2011, dated 2016).
Entries after “also recorded” stand apart in the source; their conditions may differ. Square brackets hold non-standard residues; d marks the D form. Ends that are not written are not given here.

Columns and labels:
[1] = test system: Dianthus superbus PCY1-c250; assay: In vitro assay of recombinant Dianthus superbus PCY1-c250 with presegetalin substrates, LC/MS; format: biochemical
Chain of Dianthus superbus PCY1-c250 (as listed by the source): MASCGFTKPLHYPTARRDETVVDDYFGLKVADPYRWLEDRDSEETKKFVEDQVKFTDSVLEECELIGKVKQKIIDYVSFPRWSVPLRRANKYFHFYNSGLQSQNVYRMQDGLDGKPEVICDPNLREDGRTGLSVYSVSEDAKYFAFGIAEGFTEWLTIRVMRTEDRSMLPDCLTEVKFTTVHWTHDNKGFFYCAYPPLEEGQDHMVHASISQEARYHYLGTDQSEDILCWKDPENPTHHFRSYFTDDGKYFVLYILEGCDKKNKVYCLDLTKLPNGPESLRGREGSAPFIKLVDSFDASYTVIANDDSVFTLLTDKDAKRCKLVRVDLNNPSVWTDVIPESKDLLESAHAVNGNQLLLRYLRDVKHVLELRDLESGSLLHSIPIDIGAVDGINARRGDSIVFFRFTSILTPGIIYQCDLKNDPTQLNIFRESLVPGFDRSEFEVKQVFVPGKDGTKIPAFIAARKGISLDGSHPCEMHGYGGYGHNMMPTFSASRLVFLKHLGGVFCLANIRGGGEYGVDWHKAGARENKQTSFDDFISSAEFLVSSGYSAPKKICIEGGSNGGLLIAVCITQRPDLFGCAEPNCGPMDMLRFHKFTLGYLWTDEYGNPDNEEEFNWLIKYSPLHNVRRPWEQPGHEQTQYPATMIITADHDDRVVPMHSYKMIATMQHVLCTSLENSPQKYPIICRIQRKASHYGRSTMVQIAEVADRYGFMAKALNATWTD
Source text: (§1) To test for activity of the homologues of S. vaccaria PCY1, two cDNAs encoding were cloned from Dianthus superbus (c250 and c1141 contigs) and one from Silene vulgaris (c150 contig) essentially as described for Saponaria vaccaria PCY1 in Example 2. These were named Dianthus superbus Pcy1-c250, Dianthus superbus Pcy1-c1141 and Silene vulgaris Pcy1-c150, Briefly, gene specific forward and reverse primers were used to PCR amplify the aforementioned contigs based on homologue identification in EST collections from Dianthus leaves and Silene roots. The Dianthus superbus (c250 and c1141 contigs) and Silene vulgaris (c150 contig) PCY1 homologues were assayed with 15 μg/mL presegetalin A1[14,32] in vitro as previously described for semi-purified plant extracts to determine whether they can catalyze the production of segetalin A from presegetalin A1[14,32]. The assays were initiated by the addition of 120 ng (c250), or 138 ng (c1141) purified recombinant Dianthus superbus or 4 μg Silene vulgaris Pcy1 respectively, in a total reaction volume of 100 μL. […] Thus, there are additional enzymes in the Caryophyllaceae family, which have the same enzymatic activity as S. vaccaria PCY1.
Dianthus superbus PCY1-c250 was also assayed with the alanine scan mutants and the activities were compared with those of S. vaccaria PCY1.

S. vaccaria PCY1 = assay: In vitro assay of recombinant S. vaccaria PCY1 with wild type and mutant presegetalin substrates, products detected by LC/MS; format: biochemical, Saponaria vaccaria; parameters: key to CP (cyclic peptide product detected by LC/MS after in vitro assay) / LP (linear peptide product detected by LC/MS after in vitro assay): +=presence; −=absence; conditions: for CP (cyclic peptide product detected by LC/MS after in vitro assay) / LP (linear peptide product detected by LC/MS after in vitro assay): substrates tested for cyclization by S. vaccaria PCY1; for cyclic peptide production by S. vaccaria PCY1 (in words) / linear peptide production by S. vaccaria PCY1 (in words): LC/MS and MS/MS
Chain of S. vaccaria PCY1 (as listed by the source): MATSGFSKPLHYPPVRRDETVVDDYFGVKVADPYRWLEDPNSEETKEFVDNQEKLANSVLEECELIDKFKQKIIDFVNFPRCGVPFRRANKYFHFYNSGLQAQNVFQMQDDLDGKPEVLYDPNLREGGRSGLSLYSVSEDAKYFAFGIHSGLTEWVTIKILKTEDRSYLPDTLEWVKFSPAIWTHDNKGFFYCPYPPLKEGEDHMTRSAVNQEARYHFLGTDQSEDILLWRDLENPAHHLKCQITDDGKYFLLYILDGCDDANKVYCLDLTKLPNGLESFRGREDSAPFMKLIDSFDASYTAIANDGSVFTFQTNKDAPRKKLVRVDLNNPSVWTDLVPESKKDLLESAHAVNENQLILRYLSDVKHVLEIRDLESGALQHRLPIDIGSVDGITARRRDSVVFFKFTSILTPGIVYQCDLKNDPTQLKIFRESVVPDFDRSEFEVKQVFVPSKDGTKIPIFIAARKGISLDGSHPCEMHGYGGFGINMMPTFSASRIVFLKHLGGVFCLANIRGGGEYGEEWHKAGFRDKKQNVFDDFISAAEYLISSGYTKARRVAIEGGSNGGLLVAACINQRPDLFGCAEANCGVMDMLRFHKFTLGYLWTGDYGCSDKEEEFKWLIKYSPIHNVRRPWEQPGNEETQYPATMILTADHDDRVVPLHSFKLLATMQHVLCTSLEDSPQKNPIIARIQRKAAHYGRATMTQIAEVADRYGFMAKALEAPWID
Method: The gene corresponding to S. vaccaria PCY1 was cloned and expressed in E. coli with a His-tag. HisPur Cobalt Resin™ (Thermo Scientific) was used for purification of recombinant PCY1. The purified PCY1 was quantified using BCA method (Pierce; http://http://www.piercenet.com/) with BSA as a calibration standard. The in vitro assay contained 20 mM Tris buffer (pH 8.5), 100 mM NaCl, 5 mM DTT, 0.2 mg BSA, and 1.5 μg of substrates (wild type and mutant presegetalins, procured from Bio Basic Inc with >90% purity) and was initiated by the addition of 0.3 μg of PCY1, in a total reaction volume of 100 μl. The assay was incubated at 30° C. for up to 1 h and stopped by placing reactions in dry ice. The assays were lyophilized, re-suspended in methanol, evaporated and re-suspended in 50:50 v/v methanol/water for LC/MS analysis.
Ion trap ESI+ LC/MS/MS analysis was used to detect production of cyclic peptides using an Agilent 6320 Ion Trap LC/MS system under default Smart Parameter settings. The analyzer and ion optics were adjusted to achieve proper resolution (Agilent Installation Guide #G2440-90105) using the ESI Tuning Mix (Agilent #G2431A). The mass spectrometer scanned from 50 to 2200 mass units at 8100 mass units sec^−1 with an expected peak width of 0.35 atomic mass units. For auto MS/MS, the trap isolation width was 4 atomic mass units. The associated Agilent 1200 LC was fitted with a Zorbax 300 EXTEND-C18 column (150×2.1 mm, 3.5 μm particle size) maintained at 35° C. The binary solvent system consisted of 90:10 v/v water/acetonitrile containing 0.1% formic acid and 0.1% ammonium formate (solvent A) and 10:90 v/v water/acetonitrile containing 0.1% formic acid and 0.1% ammonium formate (solvent B). The separation gradient was 90:10 A/B to 50:50 A/B in 3 ml over 20 min.
In order to characterize substrate specificity of PCY1 and understand the segetalin A biosynthetic mechanism, a total of 44 substrates (Table 3) were tested for the PCY1 activity and the results are briefly summarized in Table 3. The last two columns in Table 3 summarize product type detected by LC/MS after in vitro assays (CP is cyclic peptide and LP is linear peptide, +=presence, −=absence, NA=not applicable). The 44 substrates were classified as follows: • (A) Presegetalin A1 [14,32], a wild type (WT) precursor of segetalin A • (B) Truncated mutants of presegetalin A1[14,32] • (C) Alanine scanning mutants corresponding to variants of the mature segetalin A sequence • (D) Alanine scanning mutants of the C-terminal region of presegetalin A1[14,32] • (E) D-amino acid mutants corresponding to variants of the mature segetalin A sequence • (F) Insertion mutants corresponding to variants of the mature segetalin A sequence • (G) Other A-class and F-class presegetalins • (H) Putative cyclic peptide precursors from Dianthus caryophyllus

[2] = test system: Silene vulgaris Pcy1-c150; assay: In vitro assay of recombinant Silene vulgaris PCY1-c150 with presegetalin A1[14,32], LC/MS; format: biochemical; conditions: 15 μg/mL presegetalin A1[14,32], 4 μg enzyme
Chain of Silene vulgaris Pcy1-c150 (as listed by the source): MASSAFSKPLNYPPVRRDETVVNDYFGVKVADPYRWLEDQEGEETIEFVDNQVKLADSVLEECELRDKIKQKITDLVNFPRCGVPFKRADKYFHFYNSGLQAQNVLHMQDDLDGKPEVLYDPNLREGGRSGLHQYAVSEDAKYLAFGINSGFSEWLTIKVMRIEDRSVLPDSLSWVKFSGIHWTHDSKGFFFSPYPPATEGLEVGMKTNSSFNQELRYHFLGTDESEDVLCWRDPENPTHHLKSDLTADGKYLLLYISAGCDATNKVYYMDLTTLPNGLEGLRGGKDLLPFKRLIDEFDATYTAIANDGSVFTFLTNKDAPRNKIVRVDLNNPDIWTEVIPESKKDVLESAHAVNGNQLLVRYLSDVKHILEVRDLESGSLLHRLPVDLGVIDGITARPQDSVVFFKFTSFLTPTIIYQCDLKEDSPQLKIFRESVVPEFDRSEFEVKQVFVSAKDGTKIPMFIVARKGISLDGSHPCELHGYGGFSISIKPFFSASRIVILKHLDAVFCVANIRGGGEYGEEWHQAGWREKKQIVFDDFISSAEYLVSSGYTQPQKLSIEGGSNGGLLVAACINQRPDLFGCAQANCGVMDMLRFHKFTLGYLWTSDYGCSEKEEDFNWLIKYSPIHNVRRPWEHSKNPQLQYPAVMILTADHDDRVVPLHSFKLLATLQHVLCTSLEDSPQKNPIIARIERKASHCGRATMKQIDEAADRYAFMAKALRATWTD
Source text: as §1

[3] = test system: Dianthus superbus PCY1-c1141; assay: In vitro assay of recombinant Dianthus superbus PCY1-c1141 with presegetalin substrates, LC/MS; format: biochemical
Chain of Dianthus superbus PCY1-c1141 (as listed by the source): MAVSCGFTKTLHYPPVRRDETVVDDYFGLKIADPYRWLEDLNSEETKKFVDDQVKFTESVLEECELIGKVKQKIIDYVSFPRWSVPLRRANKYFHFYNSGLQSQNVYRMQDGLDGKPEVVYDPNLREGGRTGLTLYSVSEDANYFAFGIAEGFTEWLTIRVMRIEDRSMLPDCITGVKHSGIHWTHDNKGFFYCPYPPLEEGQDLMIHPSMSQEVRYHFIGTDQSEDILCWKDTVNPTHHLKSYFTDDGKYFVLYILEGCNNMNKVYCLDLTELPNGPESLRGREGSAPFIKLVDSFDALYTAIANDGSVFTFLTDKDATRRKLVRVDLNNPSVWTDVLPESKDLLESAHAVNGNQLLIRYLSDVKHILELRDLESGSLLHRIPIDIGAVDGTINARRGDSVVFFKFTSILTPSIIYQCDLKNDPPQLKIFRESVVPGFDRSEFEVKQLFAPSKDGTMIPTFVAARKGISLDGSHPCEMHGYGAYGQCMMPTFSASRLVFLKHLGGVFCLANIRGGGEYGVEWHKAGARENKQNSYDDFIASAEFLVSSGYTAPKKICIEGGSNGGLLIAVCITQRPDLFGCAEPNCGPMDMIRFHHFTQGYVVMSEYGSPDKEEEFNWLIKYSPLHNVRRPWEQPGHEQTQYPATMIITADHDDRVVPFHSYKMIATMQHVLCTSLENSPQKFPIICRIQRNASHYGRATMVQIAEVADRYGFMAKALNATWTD
Source text: as §1
Seven mutant peptides containing D-amino acids were synthesized (No. 26 to 32 in Table 3) and tested with S. vaccaria PCY1 under optimized in vitro conditions. In initial experiments, each amino acid corresponding to segetalin A was substituted with its D-amino acid consecutively from position 15 to 19 (No. 26 to 30). Glycine at position 14 is achiral and no substitution was required. […] To test this possibility two peptides were synthesized No. 31 and No. 32 in Table 3. […] The cyclic peptides were detected as diagnostic ions (M+H)^+ and (M+Na)^+ in LC/MS and their presence was further confirmed by MS/MS analysis. […] The cyclic peptide produced from No. 32 has alternating D- and L-forms of amino acids (with the exception of the glycine), which gives it the potential to self-assemble into nanotube under appropriate conditions (Gadhiri 1993).

| Substance | cyclic peptide production by D. superbus PCY1-c250 (in words) [1] | CP (cyclic peptide product detected by LC/MS after in vitro assay) (S. vaccaria PCY1) | LP (linear peptide product detected by LC/MS after in vitro assay) (S. vaccaria PCY1) | linear peptide production by D. superbus PCY1-c250 (in words) [1] | cyclic peptide production by S. vaccaria PCY1 (in words) (S. vaccaria PCY1) | linear peptide production by S. vaccaria PCY1 (in words) (S. vaccaria PCY1) | production of segetalin A by Silene vulgaris c150 polypeptide (in words) [2] | cyclic peptide production by D. superbus PCY1-c1141 (in words) [3] |
| --- | --- | --- | --- | --- | --- | --- | --- | --- |
| 11 (GVPVAAFQAKDVENASAPV; Presegetalin A1[14,32] variant aa18 = alanine) [compound 11] | relatively more cyclic peptide than did S. vaccaria PCY1 | + | − |  |  |  |  |  |
| 7 (AVPVWAFQAKDVENASAPV; Presegetalin A1[14,32] variant aa14 = alanine) [compound 7] | no detectable cyclic peptide | + | + | a large amount of linear peptide was detected | less product | highest amount of linear peptide product |  |  |
| Presegetalin A1[14,32] (GVPVWAFQAKDVENASAPV; listed as Saponaria vaccaria) [No. 1] | strong enzymatic activity |  |  |  | showed the formation of segetalin A | linear segetalin A | weaker than that of S. vaccaria PCY1 | strong enzymatic activity |
| 32 (GV[dP]V[dA]AFQAKDVENASAPV) [compound 32] |  | + | − |  | made cyclic peptides |  |  | made cyclic peptides; also recorded: relatively more active; also recorded: higher than the activity of S. vaccaria PCY1 |
| 12 (GVPVWVFQAKDVENASAPV; Presegetalin A1[14,32] variant aa19 = valine) [compound 12] |  | − | − |  | neither cyclic peptide nor linear peptide was detected | neither cyclic peptide nor linear peptide was detected |  |  |
| 19 (GVPVWAFQAKDVANASAPV; Presegetalin A1[14,32] E26A) [compound 19] |  | + | + |  | relatively higher amounts of segetalin A than that produced from WT substrate |  |  |  |
| 13 (GVPVWAAQAKDVENASAPV; Presegetalin A1[14,32] F20A) [compound 13] |  | + | + |  | sensitive |  |  |  |
| 35 (GVAWAFQAKDVENASAPV; Presegetalin B1[14,31]) [compound 35] |  | + | − |  | cyclic peptide products were detected from all of them |  |  |  |
| 42 (FGTHGLPAPIQVPNGMDDACAPM; Presegetalin J1[14,36]) [compound 42] |  | + | − |  | cyclic peptide products were detected from all of them |  |  |  |
| 20 (GVPVWAFQAKDVEAASAPV; Presegetalin A1[14,32] N27A) [compound 20] |  | + | + |  | sensitive |  |  |  |
| 26 (G[dV]PVWAFQAKDVENASAPV) [compound 26] |  | + | + |  |  |  |  |  |
| 31 (GV[dP]VAAFQAKDVENASAPV) [compound 31] |  | + | − |  | made cyclic peptides |  |  | made cyclic peptides |
| 40 (GLPGWPFQAKDVENASAPV; Presegetalin L1[14,32]) [compound 40] |  | + | − |  | cyclic peptide products were detected from all of them |  |  |  |
| 2 (GVPVWAFQAKDVENAPV; Presegetalin A1[14,30]) [compound 2] |  |  | + |  |  | almost equivalent to the linear peptide formed from the WT substrate |  |  |
| 27 (GV[dP]VWAFQAKDVENASAPV) [compound 27] |  | + | − |  |  |  |  |  |
| 4 (GVPVWAFQAKD; Presegetalin A1[14,24]) [compound 4] |  | − | + |  |  | almost equivalent to the linear peptide formed from the WT substrate |  |  |
| 30 (GVPVW[dA]FQAKDVENASAPV) [compound 30] |  | − | − |  | neither cyclic peptide nor linear peptide were detected | neither cyclic peptide nor linear peptide were detected |  |  |
